According to patent US10167262B2, “Herbicidal substituted 3-arylpyrazoles” (FMC CORPORATION, priority 2014, dated 2019):

Experiments:
Assay type in all cases: in vivo
[1] = system: barnyardgrass (Echinochloa crus-galli); assay: Test A pre-/postemergence greenhouse herbicide test, visual injury rating 0-100
In short: (§1)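 Visual injury versus untreated controls, scored about 10 days after treatment on a 0 to 100 scale (0 = no effect, 100 = complete control). Applications were preemergence directed soil spray plus postemergence spray at one- to two-leaf stage, 2 to 10 cm plants.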

corn (Zea mays) = assay: as above
In short: as §1

[2] = system: giant foxtail (Setaria faberii); assay: as above
In short: as §1

[3] = system: large (Lg) crabgrass (Digitaria sanguinalis); assay: as above
In short: as §1

[4] = system: morningglory (Ipomoea spp.); assay: as above
In short: as §1

[5] = system: pigweed (Amaranthus retroflexus); assay: as above
In short: as §1

[6] = system: velvetleaf (Abutilon theophrasti); assay: as above
In short: as §1

[7] = system: wheat (Triticum aestivum); assay: as above
In short: as §1

[8] = system: Italian ryegrass (Lolium multiflorum); assay: Test C pre-/postemergence greenhouse test, plant response rating 0-100
In short: (§2)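 Pre-emergence soil and post-emergence foliar sprays were applied simultaneously to seeded loam–sand pots and to 1–4-leaf plants in peat medium; greenhouse holding lasted 13–15 days, then plants were scored visually from 0 (no effect) to 100 (complete control).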

[9] = system: giant foxtail (Setaria faberii); assay: as above
In short: as §2

soybean (Glycine max) = assay: as above
In short: as §2

[10] = system: chickweed (common chickweed, Stellaria media); assay: Test C postemergence greenhouse test, plant response rating 0-100; settings: for Plant response rating, Chickweed: scale 0 to 100
In short: (§3)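 Postemergence spray onto 1–4-leaf potted seedlings, greenhouse incubation 13–15 days. Visual percent-control rating (0–100) against untreated plants.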

kochia (Kochia scoparia) = assay: as above; settings: for Plant response rating, Kochia: scale 0 to 100
In short: as §3

wild oat (Avena fatua) = assay: as above; settings: for Plant response rating, Oat, Wild: scale 0 to 100
In short: as §3

[11] = Postemergence, 250 g ai/ha, scale 0 to 100
[12] = Postemergence, 500 g ai/ha, scale 0 to 100

SMILES: CCOC(OCC)(c1cccs1)c1c[nH]nc1-c1cc(Cl)cc(Cl)c1 [Compound 27]
- Plant response rating (0 to 100 scale), Barnyardgrass ([1]; Postemergence, 125 g ai/ha): 0
- Plant response rating (0 to 100 scale), Barnyardgrass ([1]; Postemergence, 500 g ai/ha): 0
- Barnyardgrass plant response rating (0 = no effect, 100 = complete control) ([1]; Preemergence, 125 g ai/ha): 0
- Plant response rating (0 to 100 scale), Barnyardgrass ([1]; Preemergence, 500 g ai/ha): 0
- Plant response rating (0 to 100 scale), Corn (corn (Zea mays); Postemergence, 125 g ai/ha): 0
- Plant response rating (0 to 100 scale), Corn (corn (Zea mays); Postemergence, 500 g ai/ha): 0
- Corn plant response rating (0 = no effect, 100 = complete control) (corn (Zea mays); Preemergence, 125 g ai/ha): 0
- Plant response rating (0 to 100 scale), Corn (corn (Zea mays); Preemergence, 500 g ai/ha): 0
- Plant response rating (0 to 100 scale), Foxtail, Giant ([2]; Postemergence, 125 g ai/ha): 0
- Plant response rating (0 to 100 scale), Foxtail, Giant ([2]; Postemergence, 500 g ai/ha): 0
- Foxtail, Giant plant response rating (0 = no effect, 100 = complete control) ([2]; Preemergence, 125 g ai/ha): 0
- Plant response rating (0 to 100 scale), Foxtail, Giant ([2]; Preemergence, 500 g ai/ha): 0
- Plant response rating (0 to 100 scale), Crabgrass, Large ([3]; Postemergence, 125 g ai/ha): 0
- Plant response rating (0 to 100 scale), Crabgrass, Large ([3]; Postemergence, 500 g ai/ha): 0
- Crabgrass, Large plant response rating (0 = no effect, 100 = complete control) ([3]; Preemergence, 125 g ai/ha): 0
- Plant response rating (0 to 100 scale), Crabgrass, Large ([3]; Preemergence, 500 g ai/ha): 0
- Plant response rating (0 to 100 scale), Morningglory ([4]; Postemergence, 125 g ai/ha): 0
- Plant response rating (0 to 100 scale), Morningglory ([4]; Postemergence, 500 g ai/ha): 0
- Morningglory plant response rating (0 = no effect, 100 = complete control) ([4]; Preemergence, 125 g ai/ha): 0
- Plant response rating (0 to 100 scale), Morningglory ([4]; Preemergence, 500 g ai/ha): 0
- Plant response rating (0 to 100 scale), Pigweed ([5]; Postemergence, 125 g ai/ha): 80
- Plant response rating (0 to 100 scale), Pigweed ([5]; Postemergence, 500 g ai/ha): 100
- Pigweed plant response rating (0 = no effect, 100 = complete control) ([5]; Preemergence, 125 g ai/ha): 100
- Plant response rating (0 to 100 scale), Pigweed ([5]; Preemergence, 500 g ai/ha): 100
- Plant response rating (0 to 100 scale), Velvetleaf ([6]; Postemergence, 125 g ai/ha): 80
- Plant response rating (0 to 100 scale), Velvetleaf ([6]; Postemergence, 500 g ai/ha): 90
- Velvetleaf plant response rating (0 = no effect, 100 = complete control) ([6]; Preemergence, 125 g ai/ha): 80
- Plant response rating (0 to 100 scale), Velvetleaf ([6]; Preemergence, 500 g ai/ha): 80
- Plant response rating (0 to 100 scale), Wheat ([7]; Postemergence, 125 g ai/ha): 0
- Plant response rating (0 to 100 scale), Wheat ([7]; Postemergence, 500 g ai/ha): 0
- Wheat plant response rating (0 = no effect, 100 = complete control) ([7]; Preemergence, 125 g ai/ha): 0
- Plant response rating (0 to 100 scale), Wheat ([7]; Preemergence, 500 g ai/ha): 0
- Plant response rating (0 to 100), Ryegrass, Italian ([8]; Postemergence, 62 g ai/ha): 5
- Plant response rating (0 to 100), Ryegrass, Italian ([8]; Postemergence, 125 g ai/ha): 0
- Plant response rating, Ryegrass, Italian [8, 11]: 5
- Plant response rating, Ryegrass, Italian [8, 12]: 5
- Plant response rating, Ryegrass, Italian ([8]; Preemergence, 62 g ai/ha): 0
- Plant response rating, Ryegrass, Italian ([8]; Preemergence, 125 g ai/ha): 0
- Plant response rating, Ryegrass, Italian ([8]; Preemergence, 250 g ai/ha): 0
- Plant response rating, Ryegrass, Italian ([8]; Preemergence, 500 g ai/ha): 0
- Plant response rating (0 to 100), Foxtail, Giant ([9]; Postemergence, 62 g ai/ha): 0
- Plant response rating (0 to 100), Foxtail, Giant ([9]; Postemergence, 125 g ai/ha): 0
- Plant response rating, Foxtail, Giant [9, 11]: 0
- Plant response rating, Foxtail, Giant [9, 12]: 0
- Plant response rating, Foxtail, Giant ([9]; Preemergence, 62 g ai/ha): 0
- Plant response rating, Foxtail, Giant ([9]; Preemergence, 125 g ai/ha): 0
- Plant response rating, Foxtail, Giant ([9]; Preemergence, 250 g ai/ha): 0
- Plant response rating, Foxtail, Giant ([9]; Preemergence, 500 g ai/ha): 0
- Plant response rating (0 to 100), Soybean (soybean (Glycine max); Postemergence, 62 g ai/ha): 0
- Plant response rating (0 to 100), Soybean (soybean (Glycine max); Postemergence, 125 g ai/ha): 0
- Plant response rating, Soybean (soybean (Glycine max); [11]): 0
- Plant response rating, Soybean (soybean (Glycine max); [12]): 0
- Plant response rating, Soybean (soybean (Glycine max); Preemergence, 62 g ai/ha): 0
- Plant response rating, Soybean (soybean (Glycine max); Preemergence, 125 g ai/ha): 0
- Plant response rating, Soybean (soybean (Glycine max); Preemergence, 250 g ai/ha): 40
- Plant response rating, Soybean (soybean (Glycine max); Preemergence, 500 g ai/ha): 0
- Plant response rating (0 to 100), Chickweed ([10]; 62 g ai/ha): 80
- Plant response rating (0 to 100), Chickweed ([10]; 125 g ai/ha): 85
- Plant response rating, Chickweed ([10]; 250 g ai/ha): 90
- Plant response rating, Chickweed ([10]; 500 g ai/ha): 90
- Plant response rating (0 to 100), Kochia (kochia (Kochia scoparia); 62 g ai/ha): 80
- Plant response rating (0 to 100), Kochia (kochia (Kochia scoparia); 125 g ai/ha): 80
- Plant response rating, Kochia (kochia (Kochia scoparia); 250 g ai/ha): 90
- Plant response rating, Kochia (kochia (Kochia scoparia); 500 g ai/ha): 90
- Plant response rating (0 to 100), Oat, Wild (wild oat (Avena fatua); 62 g ai/ha): 0
- Plant response rating (0 to 100), Oat, Wild (wild oat (Avena fatua); 125 g ai/ha): 0
- Plant response rating, Oat, Wild (wild oat (Avena fatua); 250 g ai/ha): 5
- Plant response rating, Oat, Wild (wild oat (Avena fatua); 500 g ai/ha): 5
